Where two headings read alike, the source gives them in different places.
Experiments:
Type in all cases: cell-based
Lung (A-549) = test: SRB colorimetric assay of cell growth and viability, A-549
Description: (§1) Biological tests were carried out on coproverdine (the compound of Example 1 of the present application). A colorimetric type of assay, using sulforhodamine B (SRB) reaction, was used to provide a quantitative measurement of cell growth and viability. The technique described by Skehan, et al., J Natl. Cancer Inst., 1990, 82, 1107, was followed. The reader is also referred to the following references: • Faircloth et al. Journal of Tissue and Culture Methods, 1988, 11, 201. • Monks et al. Articles, 1991, 83, 757. • Mosmann et al. Journal of Immunological Methods, 1983, 65, 55.
(§2) Further biological tests were carried out on coproverdine using similar methods. The results are given using the following cellular response parameters: GI=growth inhibition, TGI=total growth inhibition (cytostatic effect) and LC=cell killing (cytotoxic effect).

P388 leukemia cell line = test: SRB colorimetric assay of cell growth and viability, P388; settings: Mus musculus
Description: as §1, §2

Colon (HT-29) = test: SRB colorimetric assay of cell growth and viability, HT-29
Description: as §1, §2

Melanoma (MEL-28) = test: SRB colorimetric assay of cell growth and viability, MEL-28; settings: Homo sapiens, SK-MEL-28, 24 wells/16 mm, 10,000 cells/72 h, read-out: IC50 (concentration that causes 50% growth inhibition)
Description: as §1, §2

Prostate (DU-145) = test: SRB colorimetric assay of cell growth and viability, DU-145; settings: Homo sapiens, 24 wells/16 mm, 10,000 cells/72 h, read-out: IC50 (concentration that causes 50% growth inhibition)
Description: as §1, §2

[1] = 96 wells/9 mm, 5,000 cells/48 h

SMILES: COC(=O)c1cccc2c3c(n(O)c12)C(O)(C=O)C=CC3=O (stereo not drawn) [coproverdine, 8-formyl-8,9-dihydroxy-5-oxo-8,9-dihydro-5H-carbazole-1-carboxylic acid methyl ester]
- TGI (total growth inhibition, cytostatic effect) (Lung (A-549); [1]): 15 µM
- IC50 (Lung (A-549); Homo sapiens, A549, 24 wells/16 mm, 10,000 cells/72 h, read-out: IC50 (concentration that causes 50% growth inhibition)): 0.3 µM
- GI50 (Lung (A-549); Homo sapiens, A549, 96 wells/9 mm, 5,000 cells/48 h, read-out: GI50 (50% growth inhibition with correction for cell OD at time zero)): 7 µM
- CC50 (Lung (A-549); Homo sapiens, A549, 96 wells/9 mm, 5,000 cells/48 h, read-out: LC50 (50% cell killing, cytotoxic effect)): 50 µM
- IC50 (P388 leukemia cell line; P388, Leukemia (P-388), 24 wells/16 mm, 10,000 cells/72 h, read-out: IC50 (concentration that causes 50% growth inhibition)): 1.6 µM
- IC50 (P388 leukemia cell line; P388 leukemia cell line, first test, read-out: IC50): 0.95 µg/mL
- TGI (total growth inhibition, cytostatic effect) (Colon (HT-29); [1]): 16 µM
- IC50 (Colon (HT-29); Homo sapiens, 24 wells/16 mm, 10,000 cells/72 h, read-out: IC50 (concentration that causes 50% growth inhibition)): 0.3 µM
- GI50 (Colon (HT-29); Homo sapiens, 96 wells/9 mm, 5,000 cells/48 h, read-out: GI50 (50% growth inhibition with correction for cell OD at time zero)): 6 µM
- CC50 (Colon (HT-29); Homo sapiens, 96 wells/9 mm, 5,000 cells/48 h, read-out: LC50 (50% cell killing, cytotoxic effect)): 50 µM
- IC50 (Melanoma (MEL-28)): 0.3 µM
- IC50 (Prostate (DU-145)): 0.3 µM
